Results: PubChem BioAssay (NCI)
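96-well plates; 48 h exposure; 5 concentrations. Endpoints by linear interpolation between flanking doses. Not reached: highest tested concentration assigned. GI50 = concentration required for 50% inhibition of growth. TGI is the concentration that stops growth completely.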

Columns and labels:
Test in all cases: DTP human tumour cell line panel, 48 h
[1] = tested on: KM12 colon
[2] = tested on: NCI-H226 lung
[3] = tested on: NCI/ADR-RES ovarian
[4] = tested on: OVCAR-4 ovarian
[5] = tested on: RXF 393 renal
[6] = tested on: SK-MEL-28 melanoma
[7] = tested on: RPMI-8226 leukemia
[8] = tested on: SNB-75 CNS
[9] = tested on: CAKI-1 renal
[10] = tested on: T-47D breast

SMILES: COc1nc(NC2OC(CO)C(O)C(O)C2O)c(N)c(=O)[nH]1 (configuration not stated)
- TGI [1]: > 100 µM
- TGI [2]: > 31.6 µM
- TGI [3]: > 100 µM
- TGI [4]: > 100 µM
- TGI [5]: > 100 µM
- TGI [6]: > 100 µM
- TGI [7]: > 100 µM
- TGI [8]: > 100 µM

SMILES: C/C(=N\O)c1cccc(Nc2c3ccccc3nc3occc23)c1
- TGI [1]: > 100 µM
- TGI [9]: 9.3 µM
- TGI [2]: 54.8 µM
- TGI [3]: > 100 µM
- TGI [4]: 9.59 µM
- TGI [10]: 21.7 µM
- TGI [6]: 25.6 µM
- TGI [7]: > 100 µM

SMILES: OCC1OC(n2cnc3c(Cl)nc(Nc4ccc(Cl)c(Cl)c4)nc32)CC1O (configuration not stated)
- TGI [1]: 17.7 µM
- TGI [9]: 33.7 µM
- TGI [2]: 20.2 µM
- TGI [3]: 25.3 µM
- TGI [4]: 41.8 µM
- TGI [5]: 19.5 µM
- TGI [10]: > 50 µM
- TGI [7]: 29.4 µM
- TGI [8]: 42.2 µM

SMILES: COC(=O)c1c2c(cc3c1CC1(C3)Cc3cc4c(c(C(=O)OC)c3C1)CCC4)CCC2
- TGI [1]: > 100 µM
- TGI [2]: > 100 µM
- TGI [3]: > 100 µM
- TGI [4]: > 100 µM
- TGI [5]: > 100 µM
- TGI [10]: > 100 µM
- TGI [7]: > 100 µM

SMILES: O=C1OC(c2ccccc2Br)=N/C1=C/c1ccccc1
- TGI [1]: 34 µM
- TGI [9]: > 100 µM
- TGI [2]: 77.9 µM
- TGI [4]: > 100 µM
- TGI [10]: > 100 µM
- TGI [6]: > 100 µM
- TGI [7]: > 100 µM
- TGI [8]: > 100 µM

SMILES: O=c1c2cc([N+](=O)[O-])ccc2n2n1CCCCC2
- TGI [1]: > 100 µM
- TGI [9]: > 100 µM
- TGI [2]: > 100 µM
- TGI [3]: > 100 µM
- TGI [4]: > 100 µM
- TGI [5]: > 100 µM
- TGI [6]: > 100 µM
- TGI [7]: > 100 µM
- TGI [8]: > 100 µM

SMILES: CC#CC#C/C=C1\C=CC2(OC=CC2O)O1 (configuration not stated)
- TGI [1]: 7.3 µM
- TGI [9]: > 23.3 µM
- TGI [2]: > 23.3 µM
- TGI [4]: > 23.3 µM
- TGI [5]: > 22 µM
- TGI [6]: > 23.3 µM
- TGI [7]: > 23.3 µM
- TGI [8]: > 23.3 µM

SMILES: CCCCCCCCCCCCCCCCCCOc1ccccc1COP(=O)(O)OOCC[N+](C)(C)C
- GI50 [1]: 1.01 µM
- TGI [1]: 2.12 µM
- GI50 [9]: 1.2 µM
- TGI [9]: 4.14 µM
- GI50 [2]: 1.16 µM
- TGI [2]: 5.54 µM
- GI50 [3]: 6.59 µM
- TGI [3]: 20.6 µM
- GI50 [4]: 1.33 µM
- TGI [4]: 9.92 µM
- GI50 [5]: 0.911 µM
- TGI [5]: 1.96 µM
- GI50 [10]: 1.79 µM
- TGI [10]: 11.2 µM
- GI50 [6]: 1.59 µM
- TGI [6]: 6.2 µM
- GI50 [8]: 0.96 µM
- TGI [8]: 3.51 µM

SMILES: O=C(O)c1ccc(Nc2cnc3cc(C(F)(F)F)ccc3n2)cc1
- TGI [1]: > 100 µM
- TGI [9]: > 100 µM
- TGI [2]: > 100 µM
- TGI [3]: > 100 µM
- TGI [5]: > 100 µM
- TGI [10]: 53.8 µM
- TGI [6]: > 100 µM
- TGI [7]: > 100 µM
- TGI [8]: > 100 µM

SMILES: CCCCCCCCCCCCc1ccsc1-c1ccc(-c2ccc(-c3sccc3CCCCCCCCCCCC)s2)s1
- TGI [1]: > 100 µM
- TGI [9]: > 100 µM
- TGI [2]: > 100 µM
- TGI [3]: > 100 µM
- TGI [5]: > 100 µM
- TGI [10]: > 100 µM
- TGI [6]: > 100 µM
- TGI [7]: > 100 µM
- TGI [8]: > 100 µM

SMILES: CCCC(C(=O)OC)C1N=C(NC#N)N(Cc2ccccc2)C1=O (configuration not stated)
- TGI [1]: > 100 µM
- TGI [9]: > 100 µM
- TGI [4]: > 100 µM
- TGI [5]: > 100 µM
- TGI [6]: > 100 µM
- TGI [7]: > 100 µM
- TGI [8]: 81.1 µM

SMILES: COC(=O)C1=CCC2c3[nH]c4ccccc4c3CCN2C1 (configuration not stated)
- TGI [1]: > 354 µM
- TGI [9]: > 354 µM
- TGI [2]: > 354 µM
- TGI [5]: > 354 µM
- TGI [6]: > 354 µM
- TGI [7]: > 354 µM

SMILES: CC(C)(C)CI
- TGI [1]: 64.6 µM
- TGI [5]: 33.7 µM
- TGI [6]: > 100 µM
- TGI [8]: 67.6 µM

SMILES: CC(=O)Oc1cc(-c2oc3cc(OC(C)=O)c(C4OC(CO)C(O)C(O)C4O)c(OC(C)=O)c3c(=O)c2O)c(OC(C)=O)cc1O (configuration not stated)
- TGI [1]: > 100 µM
- TGI [9]: > 100 µM
- TGI [2]: > 100 µM
- TGI [3]: > 100 µM
- TGI [4]: > 100 µM
- TGI [5]: > 100 µM
- TGI [7]: > 100 µM
- TGI [8]: > 100 µM

SMILES: [O-][N+]1=C2CCC/C(=N/O)C2(O)C2CCCCC21N1CCOCC1 (configuration not stated)
- TGI [1]: > 100 µM
- TGI [9]: > 100 µM
- TGI [2]: > 100 µM
- TGI [3]: > 100 µM
- TGI [4]: > 100 µM
- TGI [5]: > 100 µM
- TGI [10]: > 100 µM
- TGI [6]: > 100 µM
- TGI [8]: > 100 µM

SMILES: CC(C)c1c(O[Si](C(C)C)(C(C)C)C(C)C)cc2c(c1O)CC[C@H]1C(C)(C)CCC[C@]21C
- TGI [1]: > 100 µM
- TGI [9]: > 100 µM
- TGI [2]: > 100 µM
- TGI [3]: > 100 µM
- TGI [4]: > 100 µM
- TGI [5]: > 100 µM
- TGI [6]: > 100 µM
- TGI [7]: > 100 µM
- TGI [8]: > 100 µM

SMILES: O=C1c2ccccc2C(=O)N1NC1=NCCN1
- TGI [1]: > 100 µM
- TGI [9]: > 100 µM
- TGI [2]: > 100 µM
- TGI [3]: > 100 µM
- TGI [4]: > 100 µM
- TGI [5]: > 100 µM
- TGI [10]: > 100 µM
- TGI [6]: > 100 µM
- TGI [7]: > 100 µM

SMILES: CC1CC(=O)Nc2ccccc2N1C(=O)C1CC1 (configuration not stated)
- TGI [1]: > 100 µM
- TGI [9]: > 100 µM
- TGI [2]: > 100 µM
- TGI [4]: > 100 µM
- TGI [5]: > 100 µM
- TGI [10]: > 100 µM
- TGI [6]: > 100 µM
- TGI [7]: > 100 µM

SMILES: CN(/N=C/C=N/N(C)C1=NCCN1)C1=NCCN1
- TGI [1]: > 100 µM
- TGI [9]: > 100 µM
- TGI [2]: > 100 µM
- TGI [3]: > 100 µM
- TGI [4]: > 100 µM
- TGI [10]: > 100 µM
- TGI [6]: > 100 µM
- TGI [8]: > 100 µM

SMILES: CC1(C)[C@H]2Cc3cc4nc5ccccn5c4cc3[C@@H]1C2
- TGI [1]: 36.7 µM
- TGI [9]: 30 µM
- TGI [2]: 35.4 µM
- TGI [3]: 36.7 µM
- TGI [4]: 26 µM
- TGI [10]: 53.7 µM
- TGI [6]: 36.3 µM
- TGI [7]: 69.3 µM
- TGI [8]: 31.6 µM

SMILES: COC(=O)Cc1c(C2C(CC(=O)OC)c3ccccc3N2C2OC(CO)C(O)C(O)C2O)[nH]c2ccccc12 (configuration not stated)
- TGI [1]: > 100 µM
- TGI [9]: > 100 µM
- TGI [4]: > 100 µM
- TGI [6]: > 100 µM
- TGI [7]: > 100 µM
- TGI [8]: > 100 µM

SMILES: O=C1CN(c2ccccc2)C(=O)CN1NCNN1CC(=O)N(c2ccccc2)CC1=O
- TGI [1]: > 100 µM
- TGI [9]: > 100 µM
- TGI [4]: > 100 µM
- TGI [5]: > 100 µM
- TGI [6]: > 100 µM
- TGI [7]: > 100 µM
- TGI [8]: > 100 µM

SMILES: NC(CSCSCC(N)C(=O)O)C(=O)O (configuration not stated)
- TGI [1]: > 104 µM
- TGI [9]: > 225 µM
- TGI [2]: > 225 µM
- TGI [3]: > 104 µM
- TGI [4]: > 225 µM
- TGI [5]: > 225 µM
- TGI [6]: > 225 µM
- TGI [7]: > 225 µM
- TGI [8]: > 225 µM
